In patent US20250059172A1, “INDAZOLE COMPOUND AND PHARMACEUTICAL” (NIPPON SHINYAKU CO., LTD., priority 2021, published 2025) one finds IC50 data, which are given here for 26 compounds.

pIC50: −log10 of the molar value. Where a name gives a salt, the structure may show the parent alone.

In general, IC50 refers to the midpoint of a concentration-inhibition curve. Usually pIC50 stands for −log10 of the IC50, conventionally taken in molar units.

One assay addresses human mPGES-1 (Homo sapiens (Human), UniProt O14684). The experiment in a line: mPGES-1 inhibitory activity test. Format: biochemical. As to conditions: microsomes of CHO-K1 cells expressing human mPGES-1, PGH2 1 μM, PGE2 by HTRF; read-out: mPGES-1 inhibition (IC50 nM). The essentials: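 PGE2 formation was quantified by HTRF and reported as percent inhibition at 10 and 100 nM compound or as IC50. The 60-second reaction at 4° C used 1 μM PGH2, after a 20-minute 4° C preincubation of compound (1% DMSO final) with glutathione-supplemented (2.5 mM, pH 7.4) microsomes. The microsomes were from transiently transfected CHO-K1 cells expressing human mPGES-1.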
(In general: Time-resolved FRET reads energy transfer from a long-lived donor to a nearby acceptor.)

In a further assay the test system is human A549 cells. Description: Inhibition test of PGE2 production using human A549 cells. Format: cell-based. Particulars: IL-1β stimulated A549 cells, 24 h, PGE2 by HTRF, read-out: A549 cell inhibition of PGE2 production IC50. The essentials:
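A549 cells were preincubated 60 min with compound in RPMI/3% FBS (0.1% DMSO final), then stimulated with IL-1β (5 ng/well) for 24 h at 37°C. PGE2 was measured by HTRF and PGF2a by EIA; activity was normalized to stimulated minus unstimulated controls, and IC50 derived.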

Chain of human mPGES-1 (O14684 whole entry): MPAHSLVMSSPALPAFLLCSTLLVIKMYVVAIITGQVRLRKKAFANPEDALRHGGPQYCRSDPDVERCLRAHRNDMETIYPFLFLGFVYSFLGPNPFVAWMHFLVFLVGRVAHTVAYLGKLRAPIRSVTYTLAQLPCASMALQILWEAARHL

`Cc1ccc(-n2ncc3c(NC(=O)c4cc(CNC(=O)C(C)(C)C)ccc4Cl)cccc32)cn1` [Example 54, 2-Chloro-5-{[(2,2-dimethylpropanoyl)amino]methyl}-N-[1-(6-methylpyridin-3-yl)-1H-indazol-4-yl]benzamide hydrochloride]: the IC50 on human mPGES-1 came out at 9.5 nM. Also, in the assay with human A549 cells, the pIC50 was 8.21.

As for `CC(C)(C)C(=O)NCc1ccc(Cl)c(C(=O)Nc2cccc3c2cnn3-c2ccc(C#N)cc2)c1` [Example 55, 2-Chloro-N-[1-(4-cyanophenyl)-1H-indazol-4-yl]-5-([(2,2-dimethylpropanoyl)amino]methyl)benzamide], the IC50 at human mPGES-1 came out at 1.3 nM. Moreover, in the assay with human A549 cells, the pIC50 was 8.74.

In the case of `Cc1ncccc1-n1ncc2c(NC(=O)c3cc(CNC(=O)C(C)(C)C)ccc3Cl)cccc21` [Example 56, 2-Chloro-5-{[(2,2-dimethylpropanoyl)amino]methyl}-N-[1-(2-methylpyridin-3-yl)-1H-indazol-4-yl]benzamide hydrochloride], the concentration for half-maximal inhibition (IC50) on human mPGES-1 was 23.6 nM. Also, in the assay with human A549 cells, the pIC50 is 6.74.

`CC(C)(C)C(=O)NCc1ccc(Cl)c(C(=O)Nc2cccc3c2cnn3-c2cncc(C(F)(F)F)c2)c1` [Example 57, 2-Chloro-5-{[(2,2-dimethylpropanoyl)amino]methyl}-N-{1-[5-(trifluoromethyl)pyridin-3-yl]-1H-indazol-4-yl}benzamide]: on human mPGES-1, the IC50 turned out to be 19.8 nM. Also, the pIC50 with human A549 cells is 8.24.

For `Cc1cc(-n2ncc3c(NC(=O)c4cc(CNC(=O)C(C)(C)C)ccc4Cl)cccc32)ccn1` [Example 58, 2-Chloro-5-{[(2,2-dimethylpropanoyl)amino]methyl}-N-[1-(2-methylpyridin-4-yl)-1H-indazol-4-yl]benzamide hydrochloride], the IC50 at human mPGES-1 amounted to 5.9 nM. The pIC50 in the assay with human A549 cells is 8.23.

Take `Cc1cncc(-n2ncc3c(NC(=O)c4cc(CNC(=O)C(C)(C)C)ccc4Cl)cccc32)c1` [Example 60, 2-Chloro-5-{[(2,2-dimethylpropanoyl)amino]methyl}-N-[1-(5-methylpyridin-3-yl)-1H-indazol-4-yl]benzamide hydrochloride]: the IC50 on human mPGES-1 was determined as 6.7 nM. Besides, the pIC50 in the assay with human A549 cells is 7.98.

For `COc1cncc(-n2ncc3c(NC(=O)c4cc(CNC(=O)C(C)(C)C)ccc4Cl)cccc32)c1` [Example 61, 2-Chloro-5-{[(2,2-dimethylpropanoyl)amino]methyl}-N-[1-(5-methoxypyridin-3-yl)-1H-indazol-4-yl]benzamide hydrochloride], on human mPGES-1, the IC50 is 3.5 nM. For the same compound, the pIC50 with human A549 cells is 8.54.

Consider `COc1ccc(-n2ncc3c(NC(=O)c4cc(CNC(=O)C(C)(C)C)ccc4Cl)cccc32)cc1C(F)(F)F` [Example 62, 2-Chloro-5-{[(2,2-dimethylpropanoyl)amino]methyl}-N-{1-[4-methoxy-3-(trifluoromethyl)phenyl]-1H-indazol-4-yl}benzamide], for which, on human mPGES-1, the IC50 was found to be 2.4 nM. Besides, in the assay with human A549 cells, the pIC50 was 8.44.

As to `COc1ccc(-n2ncc3c(NC(=O)c4cc(CNC(=O)C(C)(C)C)ccc4Cl)cccc32)cn1` [Example 63, 2-Chloro-5-{[(2,2-dimethylpropanoyl)amino]methyl}-N-[1-(6-methoxypyridin-3-yl)-1H-indazol-4-yl]benzamide], the IC50 at human mPGES-1 was 1 nM. Moreover, the negative logarithm of the IC50 (pIC50) with human A549 cells is 7.86.

For `CC(C)(C)C(=O)NCc1ccc(Cl)c(C(=O)Nc2cccc3c2cnn3-c2cncc(C3CC3)c2)c1` [Example 64, 2-Chloro-N-[1-(5-cyclopropylpyridin-3-yl)-1H-indazol-4-yl]-5-{[(2,2-dimethylpropanoyl)amino]methyl}benzamide hydrochloride], the IC50 at human mPGES-1 worked out at 1.4 nM. Further, the pIC50 with human A549 cells is 8.72.

For `CCOc1ccc(-n2ncc3c(NC(=O)c4cc(CNC(=O)C(C)(C)C)ccc4Cl)cccc32)cc1` [Example 65, 2-Chloro-5-{[(2,2-dimethylpropanoyl)amino]methyl}-N-[1-(4-ethoxyphenyl)-1H-indazol-4-yl]benzamide], on human mPGES-1, the IC50 worked out at 2.2 nM. For the same compound, in the assay on human A549 cells, the pIC50 is 8.44.

As to `CCOc1cccc(-n2ncc3c(NC(=O)c4cc(CNC(=O)C(C)(C)C)ccc4Cl)cccc32)c1` [Example 66, 2-Chloro-5-{[(2,2-dimethylpropanoyl)amino]methyl}-N-[1-(3-ethoxyphenyl)-1H-indazol-4-yl]benzamide], on human mPGES-1, the IC50 amounted to 0.2 nM. The pIC50 in the assay on human A549 cells was 8.40.

As for `COc1ccc(-n2ncc3c(NC(=O)c4cc(CNC(=O)C(C)(C)C)ccc4Cl)cccc32)cc1OC` [Example 67, 2-Chloro-N-[1-(3,4-dimethoxyphenyl)-1H-indazol-4-yl]-5-{[(2,2-dimethylpropanoyl)amino]methyl}benzamide], the half-maximal inhibitory concentration (IC50) on human mPGES-1 stood at 3.7 nM. For the same compound, the pIC50 in the assay on human A549 cells was 8.29.

For `CC(C)Oc1cccc(-n2ncc3c(NC(=O)c4cc(CNC(=O)C(C)(C)C)ccc4Cl)cccc32)c1` [Example 68, 2-Chloro-5-{[(2,2-dimethylpropanoyl)amino]methyl}-N-{1-[3-(propan-2-yloxy)phenyl]-1H-indazol-4-yl}benzamide], on human mPGES-1, the IC50 worked out at 6.7 nM. Moreover, in the assay on human A549 cells, the negative-log IC50 (pIC50) is 8.70.

Turning to `CC(C)(C)C(=O)NCc1ccc(Cl)c(C(=O)Nc2cccc3c2cnn3-c2cccc(OC(F)(F)F)c2)c1` [Example 71, 2-Chloro-5-{[(2,2-dimethylpropanoyl)amino]methyl}-N-{1-[3-(trifluoromethoxy)phenyl]-1H-indazol-4-yl}benzamide], the IC50 at human mPGES-1 was 0.1 nM. The negative-log IC50 (pIC50) with human A549 cells is 9.22.

For `CC(C)(C)C(=O)NCc1ccc(Cl)c(C(=O)Nc2cccc3c2cnn3-c2ccc(C#N)nc2)c1` [Example 72, 2-Chloro-N-[1-(6-cyanopyridin-3-yl)-1H-indazol-4-yl]-5-([(2,2-dimethylpropanoyl)amino]methyl)benzamide], the IC50 on human mPGES-1 was found to be 6.2 nM. Further, the pIC50 with human A549 cells is 7.94.

With `COc1cc(-n2ncc3c(NC(=O)c4cc(CNC(=O)C(C)(C)C)ccc4Cl)cccc32)ccn1` [Example 73, 2-Chloro-5-{[(2,2-dimethylpropanoyl)amino]methyl}-N-[1-(2-methoxypyridin-4-yl)-1H-indazol-4-yl]benzamide hydrochloride], on human mPGES-1, the IC50 was determined as 1.2 nM. Also, the pIC50 in the assay on human A549 cells is 8.48.

On to `COCc1ccc(-n2ncc3c(NC(=O)c4cc(CNC(=O)C(C)(C)C)ccc4Cl)cccc32)cn1` [Example 74, 2-Chloro-5-{[(2,2-dimethylpropanoyl)amino]methyl}-N-{1-[6-(methoxymethyl)pyridin-3-yl]-1H-indazol-4-yl}benzamide hydrochloride], for which the IC50 on human mPGES-1 came to 1.3 nM. Also, the pIC50 in the assay with human A549 cells was 7.81.

As for `CC(C)(C)C(=O)NCc1ccc(Cl)c(C(=O)Nc2cccc3c2cnn3-c2ccc(CO)nc2)c1` [Example 75, 2-Chloro-5-{[(2,2-dimethylpropanoyl)amino]methyl}-N-{1-[6-(hydroxymethyl)pyridin-3-yl]-1H-indazol-4-yl}benzamide], the IC50 at human mPGES-1 was found to be 71.1 nM. In the assay on human A549 cells, the pIC50 was 6.59.

Consider `Cc1cc(-n2ncc3c(NC(=O)c4cc(CNC(=O)C(C)(C)C)ccc4Cl)cccc32)cc(C)n1` [Example 76, 2-Chloro-5-{[(2,2-dimethylpropanoyl)amino]methyl}-N-[1-(2,6-dimethylpyridin-4-yl)-1H-indazol-4-yl]benzamide hydrochloride], for which, on human mPGES-1, the IC50 stood at 2.4 nM. Also, in the assay with human A549 cells, the pIC50 is 8.28.

As for `CC(C)(C)C(=O)NCc1ccc(Cl)c(C(=O)Nc2cccc3c2cnn3-c2ccc(C(F)(F)F)nc2)c1` [Example 77, 2-Chloro-5-{[(2,2-dimethylpropanoyl)amino]methyl}-N-{1-[6-(trifluoromethyl)pyridin-3-yl]-1H-indazol-4-yl}benzamide], the IC50 on human mPGES-1 stood at 1.1 nM. In the assay with human A549 cells, the pIC50 was 9.00.

For `COCc1cncc(-n2ncc3c(NC(=O)c4cc(CNC(=O)C(C)(C)C)ccc4Cl)cccc32)c1` [Example 78, 2-Chloro-5-{[(2,2-dimethylpropanoyl)amino]methyl}-N-{1-[5-(methoxymethyl)pyridin-3-yl]-1H-indazol-4-yl}benzamide hydrochloride], the concentration for half-maximal inhibition (IC50) at human mPGES-1 worked out at 10.4 nM. Further, the pIC50 in the assay with human A549 cells is 8.01.

Turning to `Cc1cc(OC(F)(F)F)ccc1-n1ncc2c(NC(=O)c3cc(CNC(=O)C(C)(C)C)ccc3Cl)cccc21` [Example 79, 2-Chloro-5-{[(2,2-dimethylpropanoyl)amino]methyl}-N-{1-[2-methyl-4-(trifluoromethoxy)phenyl]-1H-indazol-4-yl}benzamide], on human mPGES-1, the IC50 came out at 1 nM. Also, the negative-log IC50 (pIC50) in the assay on human A549 cells was 8.47.

For `CC(C)(C)C(=O)NCc1ccc(Cl)c(C(=O)Nc2cccc3c2cnn3-c2nccs2)c1` [Example 80, 2-Chloro-5-{[(2,2-dimethylpropanoyl)amino]methyl}-N-[1-(1,3-thiazol-2-yl)-1H-indazol-4-yl]benzamide], the IC50 at human mPGES-1 was determined as 1.1 nM. In the assay on human A549 cells, the pIC50 was 8.28.

For the compound `CC(C)(C)C(=O)NCc1ccc(Cl)c(C(=O)Nc2cccc3c2cnn3-c2cccc(OC(F)F)c2)c1` [Example 81, 2-Chloro-N-{1-[3-(difluoromethoxy)phenyl]-1H-indazol-4-yl}-5-{[(2,2-dimethylpropanoyl)amino]methyl}benzamide], at human mPGES-1, the half-inhibitory concentration (IC50) came to 14.9 nM. Besides, the pIC50 in the assay on human A549 cells is 9.52.

Regarding `Cc1cc(-n2ncc3c(NC(=O)c4cc(CNC(=O)C(C)(C)C)ccc4Cl)cccc32)ccc1OC(F)(F)F` [Example 82, 2-Chloro-5-{[(2,2-dimethylpropanoyl)amino]methyl}-N-{1-[3-methyl-4-(trifluoromethoxy)phenyl]-1H-indazol-4-yl}benzamide], the IC50 at human mPGES-1 came out at 10 nM. The negative-log IC50 (pIC50) with human A549 cells was 9.52.
